Experimental data reported in patent US20230265116A1, “DEGRADATION OF (EGFR) BY CONJUGATION OF EGFR INHIBITORS WITH E3 LIGASE LIGAND AND METHODS OF USE” (BEIGENE, LTD., priority 2020, published 2023).
Structures can show the parent of a compound that is named as a salt.

Legend:
[1] = target: T1, EGFR (HCC827 cells) (Homo sapiens, UniProt P00533, DEL746-750); experiment: EGFR degradation HTRF assay, HCC827 cells; assay type: cell-based; details: HCC827, 16h treatment; for Dmax: maximum percentage of degradation
T1 construct: endogenous in cells; host or cells: HCC827
T1 sequence (P00533 with tags, fused parts or gaps DEL746-750): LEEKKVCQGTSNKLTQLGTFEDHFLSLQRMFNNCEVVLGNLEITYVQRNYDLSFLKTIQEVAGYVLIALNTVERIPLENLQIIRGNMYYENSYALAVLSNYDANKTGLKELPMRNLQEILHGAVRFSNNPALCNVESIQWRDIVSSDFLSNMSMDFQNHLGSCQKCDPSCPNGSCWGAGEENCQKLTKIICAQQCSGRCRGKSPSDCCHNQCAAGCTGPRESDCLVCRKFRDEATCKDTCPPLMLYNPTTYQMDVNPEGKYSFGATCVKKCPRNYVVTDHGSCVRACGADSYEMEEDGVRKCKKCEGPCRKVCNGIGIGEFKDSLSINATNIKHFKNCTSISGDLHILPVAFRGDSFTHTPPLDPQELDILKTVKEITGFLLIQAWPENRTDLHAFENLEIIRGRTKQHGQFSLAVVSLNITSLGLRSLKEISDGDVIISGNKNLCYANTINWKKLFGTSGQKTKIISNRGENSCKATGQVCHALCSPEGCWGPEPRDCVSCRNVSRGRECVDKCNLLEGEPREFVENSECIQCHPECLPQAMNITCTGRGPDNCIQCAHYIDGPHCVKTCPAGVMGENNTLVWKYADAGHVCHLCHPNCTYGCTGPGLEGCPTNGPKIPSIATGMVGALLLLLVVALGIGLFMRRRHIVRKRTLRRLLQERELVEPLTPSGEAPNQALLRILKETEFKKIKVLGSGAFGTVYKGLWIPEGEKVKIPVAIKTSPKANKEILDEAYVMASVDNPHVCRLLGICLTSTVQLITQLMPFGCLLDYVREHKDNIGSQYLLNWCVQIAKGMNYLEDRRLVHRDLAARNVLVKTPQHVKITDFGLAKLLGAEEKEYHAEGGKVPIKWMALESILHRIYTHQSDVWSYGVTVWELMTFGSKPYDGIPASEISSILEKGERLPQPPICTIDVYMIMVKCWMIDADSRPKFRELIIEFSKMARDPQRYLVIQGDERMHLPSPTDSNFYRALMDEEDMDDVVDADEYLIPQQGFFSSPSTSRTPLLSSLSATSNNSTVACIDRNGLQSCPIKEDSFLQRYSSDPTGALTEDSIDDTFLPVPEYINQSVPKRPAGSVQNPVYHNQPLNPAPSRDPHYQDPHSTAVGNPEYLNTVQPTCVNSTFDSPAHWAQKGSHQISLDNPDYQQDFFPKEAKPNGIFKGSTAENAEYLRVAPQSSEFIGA
Procedure: (§1) BaF3 WT(wild type), BaF3-LTC(L858R/T790M/C797S) and BaF3-DTC(Del19/T790M/C797S) cells are treated with compounds diluted in 0.2% DMSO cell culture medium and incubate for 16h, 37° C., 5% CO2, H1975-#36, H1975-#28, H1975-#23 and HCC827 cells are treated with compounds diluted in 0.2% DMSO cell culture medium on day 2, incubate for 16h, 37° C., 5% CO2.the final concentriation of compounds in all assay is start with 10 uM, 5-fold dilution, total 8 doses were included.
(§2) After 16h treatment, add HTRF lysis buffer to each well; seal the plate and incubate 1 hour at room temperature on a plate shaker; Once the cells are lysed, 16 μL of cell lysate are transferred to a PE 384-well HTRF detection plate; 4 μL of pre-mixed HTRF antibodies are added to each well; Cover the plate with a plate sealer, spin 1000 rpm for 1 min, Incubate overnight at room temperature; Read on BMG PheraStar with HTRF protocol (337 nm-665 nm-620 nm).
(§3) The inhibition (degradation) percentage of the compound was calculated by the following equation: Inhibition percentage of Compound=100-100×(Signal-low control)/(High control-low control), wherein signal=each test compound group
(§4) High control=Cell group with added DMSO and without compound, indicating microplate readings without EGFR degradation;
(§5) Dmax is the maximum percentage of inhibition (degradation).
(§6) The IC50 (DC50) value of a compound can be obtained by fitting the following equation
(§7) Y=Bottom+(TOP−Bottom)/(1+((IC50/X)^hillslope))
(§8) Wherein, X and Y are known values, and IC50, Hillslope, Top and Bottom are the parameters obtained by fitting with software. Y is the inhibition percentage (calculated from the equation), X is the concentration of the compound; IC50 is the concentration of the compound when the 50% inhibition is reached. The smaller the IC50 value is, the stronger the inhibitory ability of the compound is. Vice versa, the higher the IC50 value is, the weaker the inhibitory ability of the compound is; Hillslope represents the slope of the fitted curve, generally around 1*; Bottom represents the minimum value of the curve obtained by data fitting, which is generally 0%±20%; Top represents the maximum value of the curve obtained by data fitting, which is generally 100%±20%. The experimental data were fitted by calculating and analyzing with Dotmatics data analysis software.

[2] = target: T2, EGFR L858R/T790M (H1975-clone #36, homozygous) (Homo sapiens, UniProt P00533, L858R/T790M); experiment: EGFR degradation HTRF assay, H1975-clone #36 cells; assay type: cell-based; details: H1975 #36, 16h treatment; for Dmax: NCI-H1975, maximum percentage of degradation
T2 construct: designed to specifically target WT EGFR but preserve the L858R/T790M copy; host or cells: H1975-clone #36
T2 sequence (P00533 25-1210 T790M/L858R): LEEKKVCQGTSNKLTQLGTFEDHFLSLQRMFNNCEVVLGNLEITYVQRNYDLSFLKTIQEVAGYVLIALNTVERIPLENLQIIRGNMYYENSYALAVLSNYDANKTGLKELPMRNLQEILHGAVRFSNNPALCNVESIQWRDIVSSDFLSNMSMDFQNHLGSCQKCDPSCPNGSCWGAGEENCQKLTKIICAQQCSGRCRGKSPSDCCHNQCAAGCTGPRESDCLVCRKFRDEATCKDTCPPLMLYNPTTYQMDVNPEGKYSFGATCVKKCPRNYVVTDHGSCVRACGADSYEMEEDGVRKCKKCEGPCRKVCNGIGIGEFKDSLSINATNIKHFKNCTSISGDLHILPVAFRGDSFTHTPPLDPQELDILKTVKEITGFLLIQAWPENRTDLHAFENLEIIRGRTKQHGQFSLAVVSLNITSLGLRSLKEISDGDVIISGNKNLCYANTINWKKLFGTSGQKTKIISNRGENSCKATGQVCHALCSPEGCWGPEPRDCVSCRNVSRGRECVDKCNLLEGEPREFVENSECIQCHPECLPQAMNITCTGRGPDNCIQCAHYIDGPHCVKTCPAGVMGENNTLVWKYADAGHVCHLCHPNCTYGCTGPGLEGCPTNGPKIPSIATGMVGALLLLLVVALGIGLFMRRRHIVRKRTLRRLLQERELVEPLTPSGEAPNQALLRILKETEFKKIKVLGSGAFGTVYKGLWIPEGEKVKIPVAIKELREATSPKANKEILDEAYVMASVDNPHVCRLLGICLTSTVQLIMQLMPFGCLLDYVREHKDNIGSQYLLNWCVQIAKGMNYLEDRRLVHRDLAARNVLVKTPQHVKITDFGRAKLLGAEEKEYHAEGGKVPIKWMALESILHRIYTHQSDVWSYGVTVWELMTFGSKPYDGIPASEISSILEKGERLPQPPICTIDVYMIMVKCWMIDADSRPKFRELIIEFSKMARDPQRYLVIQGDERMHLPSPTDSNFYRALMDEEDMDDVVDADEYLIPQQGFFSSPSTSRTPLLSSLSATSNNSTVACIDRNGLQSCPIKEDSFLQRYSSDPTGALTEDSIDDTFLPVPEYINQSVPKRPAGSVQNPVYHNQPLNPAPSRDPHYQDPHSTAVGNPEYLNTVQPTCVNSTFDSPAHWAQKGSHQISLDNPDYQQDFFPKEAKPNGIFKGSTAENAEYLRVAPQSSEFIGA
Procedure: H1975-clone #36(L858R/T790M). H1975 cell heterozygously (from ATCC) contains alleles of WT and L858R/T790M EGFR. H1975-clone #36(L858R/T790M) was generated by gene knockout, in which the EGFR targeting sgRNA was designed to specifically target WT EGFR but preserve the L858R/T790M copy. Followed by the gene knockout, the edited H1975 cells were seeded in 96 well plates at the concentration of 1 cell/well, cultured for about 2 weeks to allow single clones formation. The formed clones were screened by DNA sequencing for the desired edition. H1975-clone #36 was confirmed as a homozygous L858R/T790M EGFR clone.
as §1, §2, §3, §4, §5, §6, §7, §8

| Compound | DC50 [1] | Dmax [1] | DC50 [2] | Dmax [2] |
| --- | --- | --- | --- | --- |
| CCc1cc(Nc2ncc(Br)c(Nc3ccc4nccnc4c3P(C)(C)=O)n2)c(OC)cc1N1CCC(N2CCN(CCc3ccc(C4CCC(=O)NC4=O)c(OC)c3)CC2)CC1 (stereo not drawn) [Example 2, 3-(4-(2-(4-(1-(4-((5-bromo-4-((5-(dimethylphosphoryl)quinoxalin-6-yl)amino)pyrimidin-2-yl)amino)-2-ethyl-5-methoxyphenyl)piperidin-4-yl)piperazin-1-yl)ethyl)-2-methoxyphenyl)piperidine-2,6-dione] | 18 nM | 78.5% | 3720 nM | 53.6% |
| CCc1cc(Nc2ncc(Br)c(Nc3ccc4nccnc4c3P(C)(C)=O)n2)c(OC)cc1N1CCC(N2CCN(CCc3ccc(C4CCC(=O)NC4=O)c(C)c3)CC2)CC1 (stereo not drawn) [Example 3, 3-(4-(2-(4-(1-(4-((5-bromo-4-((5-(dimethylphosphoryl)quinoxalin-6-yl)amino)pyrimidin-2-yl)amino)-2-ethyl-5-methoxyphenyl)piperidin-4-yl)piperazin-1-yl)ethyl)-2-methylphenyl)piperidine-2,6-dione] | 14.3 nM | 72.3% | > 10000 nM | 45.1% |
| CCc1cc(Nc2ncc(Br)c(Nc3ccc4nccnc4c3P(C)(C)=O)n2)c(OC)cc1N1CCC(N2CCN(CCc3ccc(C4CCC(=O)NC4=O)c(Cl)c3)CC2)CC1 (stereo not drawn) [Example 4, 3-(4-(2-(4-(1-(4-((5-bromo-4-((5-(dimethylphosphoryl)quinoxalin-6-yl)amino)pyrimidin-2-yl)amino)-2-ethyl-5-methoxyphenyl)piperidin-4-yl)piperazin-1-yl)ethyl)-2-chlorophenyl)piperidine-2,6-dione] | 11.1 nM | 83.6% | 7.44 nM | 75.4% |
| CCc1cc(Nc2ncc(Br)c(Nc3ccc4nccnc4c3P(C)(C)=O)n2)c(OC)cc1N1CCC(N2CCN(CCc3ccc(C4CCC(=O)NC4=O)cn3)CC2)CC1 (stereo not drawn) [Example 13, 3-(6-(2-(4-(1-(4-((5-bromo-4-((5-(dimethylphosphoryl)quinoxalin-6-yl)amino)pyrimidin-2-yl)amino)-2-ethyl-5-methoxyphenyl)piperidin-4-yl)piperazin-1-yl)ethyl)pyridin-3-yl)piperidine-2,6-dione] | 9.48 nM | 78.9% | > 10000 nM | 42.8% |
| CCc1cc(Nc2ncc(Br)c(Nc3ccc4nccnc4c3P(C)(C)=O)n2)c(OC)cc1N1CCC(N2CCN(CCOc3ccc(C4CCC(=O)NC4=O)cc3)CC2)CC1 (stereo not drawn) [Example 17, 3-(4-(2-(4-(1-(4-((5-bromo-4-((5-(dimethylphosphoryl)quinoxalin-6-yl)amino)pyrimidin-2-yl)amino)-2-ethyl-5-methoxyphenyl)piperidin-4-yl)piperazin-1-yl)ethoxy)phenyl)piperidine-2,6-dione formate] | 25.4 nM | 73.3% | > 10000 nM | 6.77% |
| CCc1cc(Nc2ncc(Br)c(Nc3ccc4nccnc4c3P(C)(C)=O)n2)c(OC)cc1N1CCC(N2CCN(CC3CCN(c4ccc(C5CCC(=O)NC5=O)cc4)CC3)CC2)CC1 (stereo not drawn) [Example 22, 3-(4-(4-((4-(1-(4-((5-bromo-4-((5-(dimethylphosphoryl)quinoxalin-6-yl)amino)pyrimidin-2-yl)amino)-2-ethyl-5-methoxyphenyl)piperidin-4-yl)piperazin-1-yl)methyl)piperidin-1-yl)phenyl)piperidine-2,6-dione] | 6.26 nM | 67.5% | > 10000 nM | 41.7% |
| CCc1cc(Nc2ncc(Br)c(Nc3ccc4nccnc4c3P(C)(C)=O)n2)c(OC)cc1N1CCC(N2CCN(C(=O)CC3CCN(c4ccc(C5CCC(=O)NC5=O)cc4)CC3)CC2)CC1 (stereo not drawn) [Example 24, 3-(4-(4-(2-(4-(1-(4-((5-bromo-4-((5-(dimethylphosphoryl)quinoxalin-6-yl)amino)pyrimidin-2-yl)amino)-2-ethyl-5-methoxyphenyl)piperidin-4-yl)piperazin-1-yl)-2-oxoethyl)piperidin-1-yl)phenyl)piperidine-2,6-dione] | 6.59 nM | 74.7% | 5.72 nM | 65.5% |
| CCc1cc(Nc2ncc(Br)c(Nc3ccc4nccnc4c3P(C)(C)=O)n2)c(OC)cc1N1CCC(N2CCN(CCC3CCN(c4ccc(N5CCC(=O)NC5=O)cc4)CC3)CC2)CC1 [Example 55, 1-(4-(4-(2-(4-(1-(4-((5-bromo-4-((5-(dimethylphosphoryl)quinoxalin-6-yl)amino)pyrimidin-2-yl)amino)-2-ethyl-5-methoxyphenyl)piperidin-4-yl)piperazin-1-yl)ethyl)piperidin-1-yl)phenyl)dihydropyrimidine-2,4(1H,3H)-dione] | 313 nM | 56.2% | > 10000 nM | 18.7% |
| CCc1cc(Nc2ncc(Br)c(Nc3ccc4nccnc4c3P(C)(C)=O)n2)c(OC)cc1N1CCC(N2CCN(C(=O)CCC3CN(c4ccc5c(c4)C(=O)N(C4CCC(=O)NC4=O)C5=O)C3)CC2)CC1 (stereo not drawn) [Example 57, 5-(3-(3-(4-(1-(4-((5-bromo-4-((5-(dimethylphosphoryl)quinoxalin-6-yl)amino)pyrimidin-2-yl)amino)-2-ethyl-5-methoxyphenyl)piperidin-4-yl)piperazin-1-yl)-3-oxopropyl)azetidin-1-yl)-2-(2,6-dioxopiperidin-3-yl)isoindoline-1,3-dione] | 4.8 nM | 76.1% | 5.31 nM | 77.4% |
| CCc1cc(Nc2ncc(Br)c(Nc3ccc4nccnc4c3P(C)(C)=O)n2)c(OC)cc1N1CCC(N2CCN(CCC3CN(c4ccc5c(c4)C(=O)N(C4CCC(=O)NC4=O)C5=O)C3)CC2)CC1 (stereo not drawn) [Example 58, 5-(3-(2-(4-(1-(4-((5-bromo-4-((5-(dimethylphosphoryl)quinoxalin-6-yl)amino)pyrimidin-2-yl)amino)-2-ethyl-5-methoxyphenyl)piperidin-4-yl)piperazin-1-yl)ethyl)azetidin-1-yl)-2-(2,6-dioxopiperidin-3-yl)isoindoline-1,3-dione] | 5.45 nM | 78.5% | 3.9 nM | 88.5% |
| CCc1cc(Nc2ncc(Br)c(Nc3ccc4nccnc4c3P(C)(C)=O)n2)c(OC)cc1N1CCC(N2CCN(CC3CN(c4ccc5c(c4)C(=O)N(C4CCC(=O)NC4=O)C5=O)C3)CC2)CC1 (stereo not drawn) [Example 59, 5-(3-((4-(1-(4-((5-bromo-4-((5-(dimethylphosphoryl)quinoxalin-6-yl)amino)pyrimidin-2-yl)amino)-2-ethyl-5-methoxyphenyl)piperidin-4-yl)piperazin-1-yl)methyl)azetidin-1-yl)-2-(2,6-dioxopiperidin-3-yl)isoindoline-1,3-dione] | 4.68 nM | 85.2% | 1.62 nM | 82.5% |
| COc1cc(N2CCC(N3CCN(C(=O)CCCCN4CCN(c5ccc6c(c5)C(=O)N(C5CCC(=O)NC5=O)C6=O)CC4)CC3)CC2)ccc1Nc1ncc(Cl)c(Nc2ccccc2NS(C)(=O)=O)n1 (stereo not drawn) [Example 141, N-(2-((5-chloro-2-((4-(4-(4-(5-(4-(2-(2,6-dioxopiperidin-3-yl)-1,3-dioxoisoindolin-5-yl)piperazin-1-yl)pentanoyl)piperazin-1-yl)piperidin-1-yl)-2-methoxyphenyl)amino)pyrimidin-4-yl)amino)phenyl)methanesulfonamide] | 19.2 nM | 82% |  |  |
| COc1cc(N2CCC(N3CCN(C(=O)C4CCN(CC5CCN(c6ccc7c(c6)C(=O)N(C6CCC(=O)NC6=O)C7=O)CC5)CC4)CC3)CC2)ccc1Nc1ncc(Cl)c(Nc2ccccc2NS(C)(=O)=O)n1 (stereo not drawn) [Example 142, N-(2-((5-chloro-2-((4-(4-(4-(1-((1-(2-(2,6-dioxopiperidin-3-yl)-1,3-dioxoisoindolin-5-yl)piperidin-4-yl)methyl)piperidine-4-carbonyl)piperazin-1-yl)piperidin-1-yl)-2-methoxyphenyl)amino)pyrimidin-4-yl)amino)phenyl)methanesulfonamide] | 6.22 nM | 89.4% |  |  |
